Assay results: patent US4163839A, “Isocoformycin and a process for the production thereof” (priority 1977, dated 1979)
Read-outs that look alike come from different tables or passages of the source.

Legend:
[1] = molecular target: T1, adenosine deaminase from calf intestine (Bos taurus, UniProt P56658); experiment: Inhibition of adenosine deaminase from calf intestine (decrease in optical density); type: biochemical; details: at 25° C., read-out: ID50 (the source's name)
T1 construct: from tissue; host or cells: calf intestine
T1 sequence (P56658 1-363): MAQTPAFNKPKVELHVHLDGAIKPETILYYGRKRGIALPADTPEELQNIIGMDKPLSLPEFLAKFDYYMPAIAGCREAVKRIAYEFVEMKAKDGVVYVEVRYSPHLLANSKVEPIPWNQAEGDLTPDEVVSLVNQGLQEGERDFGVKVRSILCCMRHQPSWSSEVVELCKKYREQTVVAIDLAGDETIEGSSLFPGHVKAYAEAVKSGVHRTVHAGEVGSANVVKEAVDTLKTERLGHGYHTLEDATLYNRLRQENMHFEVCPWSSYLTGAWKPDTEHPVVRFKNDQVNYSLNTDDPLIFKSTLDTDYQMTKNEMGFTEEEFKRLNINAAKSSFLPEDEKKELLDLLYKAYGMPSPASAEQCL
Experimental: (§1) The novel compound of the present invention, isocoformycin (III), is useful because of its ability to inhibit strongly the deamination of formycin, adenine arabinoside and cordycepin by the adenosine deaminase present in mammals and birds. The inhibitory activities of isocoformycin on adenosine deaminase were measured using formycin and adenosine as the substrate. Three ml of a solution of adenosine or formycin in 0.05 M phosphate buffer (12 mg/ml, pH 7.5 and 6.5, respectively) was put in a quartz cell of 1 cm in length and 0.1 ml of a solution containing a known amount of isocoformycin in distilled water was added. The reaction was started by addition of 0.1 ml of enzyme solution (adenosine deaminase from calf intestine: 1 mg/ml of 0.025 M ammonium acetate or Takadiastase-Y: 4 mg/ml of distilled water) and the decreases for 2 minutes in optical densities at 265 nm in the case of adenosine or 295 nm in the case of formycin were recorded on Beckmann spectrophotometer equipped with the Gilford recorder. The concentration of the inhibitor for 50% inhibition (ID50) was calculated from the difference of the optical densities as shown in Table 1.

[2] = molecular target: Takadiastase-Y; experiment: Inhibition of Takadiastase-Y deamination (decrease in optical density); type: biochemical; details: at 45° C., 2 min, read-out: ID50 (the source's name)
Experimental: as §1

[3] = tested on: mouse leukemia L-1210 cells; experiment: Inhibition of multiplication of L-1210 cells in tissue culture (Lowry method); type: cell-based
Description: The isocoformycin is also useful as a strong synergist of formcyin and adenine arabinoside for their antitumor activities. […] The inhibitory effect of formycin with or without isocoformycin on multiplication of the mouse leukemia L-1210 cells measured by the Lowry method [O. H. Lowry, N. J. Rosenbrough, A. L. Farr and R. J. Randall, J. Biol. Chem., 193, 265 (1951)] is directed in Table 2.

[4] = tested on: mouse leukemia L-1210 cells; experiment: Survival period of mice implanted with L-1210 cells; type: in vivo
Experimental: Each dose was injected i.p. 2 hrs. after implantation of 10^5 L-1210 cells once a day for 10 days.
"S. period" is the mean survival time in days.
"T/C" is the ratio of the mean survival time of the treated (with drug) animals versus the control's (no drug) and is expressed as a percentage.

[5] = tested on: Escherichia coli NIHJ; experiment: Disc method on nutrient agar against Escherichia coli NIHJ; type: cell-based; details: for Diameter (inhibition diameter): disc 8 mm, medium containing formycin 50 μg/ml
[6] = formycin 50 μg/m i.p. once a day for 10 days, isocoformycin 0
[7] = isocoformycin 1.5 μg/m i.p. once a day for 10 days, without formycin
[8] = isocoformycin 1.5 μg/m with formycin 50 μg/m, i.p. once a day for 10 days
[9] = isocoformycin 3.1 μg/m i.p. once a day for 10 days, without formycin
[10] = isocoformycin 3.1 μg/m with formycin 50 μg/m, i.p. once a day for 10 days
[11] = isocoformycin 6.2 μg/m i.p. once a day for 10 days, without formycin
[12] = isocoformycin 6.2 μg/m with formycin 50 μg/m, i.p. once a day for 10 days
[13] = isocoformycin 12.5 μg/m i.p. once a day for 10 days, without formycin
[14] = isocoformycin 12.5 μg/m with formycin 50 μg/m, i.p. once a day for 10 days
[15] = isocoformycin 25 μg/m i.p. once a day for 10 days, without formycin
[16] = isocoformycin 25 μg/m with formycin 50 μg/m, i.p. once a day for 10 days
[17] = isocoformycin 50 μg/m i.p. once a day for 10 days, without formycin
[18] = isocoformycin 50 μg/m with formycin 50 μg/m, i.p. once a day for 10 days

`OCC1NC=Nc2c1ncn2[C@@H]1O[C@H](CO)[C@@H](O)[C@H]1O` (stereo partly drawn) [9-β-D-ribofuranosyl-6-hydroxymethyl-1,6-dihydropurine, reference compound] gave an IC50 ([1]; substrate adenosine, pH 7.5) of 5800 nM, an IC50 ([1]; substrate formycin, pH 6.5) of 2600 nM and an IC50 ([2]; substrate adenosine, pH 7.5) of 280000 nM. The IC50 ([2]; substrate formycin, pH 6.5) was 200000 nM.

For `Nc1ncnc2c([C@@H]3O[C@H](CO)[C@@H](O)[C@H]3O)[nH]nc12` [Formycin, formycin], the inhibition at 0.2 µg/mL ([3]; Mus musculus, L1210) was 8%, the T/C % [4, 6] was 122% and the “s.period (mean survival time)” value [4, 6] was 10.5 days.

For `OC[C@H]1O[C@@H](n2cnc3c2N=CNC(O)C3)[C@H](O)[C@@H]1O` (stereo partly drawn) [Isocoformycin, 3-β-D-ribofuranosyl-3,6,7,8-tetrahydroimidazo[4,5-d][1,3]-diazepin-7-ol], the IC50 ([1]; substrate adenosine, pH 7.5) was 86 nM, the IC50 ([1]; substrate formycin, pH 6.5) was 35 nM and the IC50 ([2]; substrate adenosine, pH 7.5) was 1100 nM. For the same compound, the IC50 ([2]; substrate formycin, pH 6.5) was 2000 nM, the inhibition at 0.2 µg/mL ([3]; Mus musculus, L1210, isocoformycin 0.20 μg/ml, formycin 0.0, read-out: Inhibition (%)) was 0% and the inhibition at 0.5 µg/mL ([3]; Mus musculus, L1210, isocoformycin 0.50 μg/ml, formycin 0.0) was -4%. The “Inhibition (%)” value ([3]; isocoformycin 0.20 μg/ml with formycin 0.20 μg/ml) was 42%, the “Inhibition (%)” value ([3]; isocoformycin 0.50 μg/ml with formycin 0.20 μg/ml) was 55% and the “synergistic effect with formycin in the inhibition of cell multiplication” value ([3]; tissue cultures, with formycin) was “strong synergistic effect”. For the same compound, the “prolongation in the survival period” value ([4]; formycin combined with isocoformycin intraperitoneally) was “marked prolongation”, the T/C % [4, 7] was 93% and the “s.period (mean survival time)” value [4, 7] was 8.0 days. For the same compound, the T/C % [4, 8] was 145%, the “s.period (mean survival time)” value [4, 8] was 12.5 days and the T/C % [4, 9] was 105%. For the same compound, the “s.period (mean survival time)” value [4, 9] was 9.0 days, the T/C % [4, 10] was 163% and the “s.period (mean survival time)” value [4, 10] was 14.0 days. The T/C % [4, 11] was 99%, the “s.period (mean survival time)” value [4, 11] was 9.0 days and the T/C % [4, 12] was 140%. For the same compound, the “s.period (mean survival time)” value [4, 12] was 12.0 days, the T/C % [4, 13] was 116% and the “s.period (mean survival time)” value [4, 13] was 8.5 days. The T/C % [4, 14] was 163%, the “s.period (mean survival time)” value [4, 14] was 14.0 days and the T/C % [4, 15] was 93%. The “s.period (mean survival time)” value [4, 15] was 10.0 days, the T/C % [4, 16] was 174% and the “s.period (mean survival time)” value [4, 16] was 15.0 days. The T/C % [4, 17] was 93%, the “s.period (mean survival time)” value [4, 17] was 8.0 days and the T/C % [4, 18] was 174%. For the same compound, the “s.period (mean survival time)” value [4, 18] was 15.0 days, the “Diameter (inhibition diameter)” value ([5]; isocoformycin 2.5 μg/ml) was 22.0 mm and the “Diameter (inhibition diameter)” value ([5]; isocoformycin 10 μg/ml) was 25.0 mm. The “Diameter (inhibition diameter)” value ([5]; isocoformycin 40 μg/ml) was 32.0 mm, the “Diameter (inhibition diameter)” value ([5]; isocoformycin 200 μg/ml) was 36.0 mm and the “inhibitory activity against Escherichia coli NIHJ” value ([5]; without formycin, isocoformycin 2 mg/ml) was “no inhibitory activity”.
